{"source": "ChEMBL document CHEMBL4602703", "about": "“Lead Optimization of a Pyrrole-Based Dihydroorotate Dehydrogenase Inhibitor Series for the Treatment of Malaria” (J Med Chem, 2020)", "key": {"[1]": {"assay": "Inhibition of yeast DHODH transformed in Plasmodium falciparum D10 in presence of 10 uM proguanil", "parameters": "species or system Saccharomyces cerevisiae"}, "[2]": {"system": "HepG2", "assay": "Cytotoxicity against human HepG2 cells assessed as reduction in cell viability", "format": "cell-based"}, "[3]": {"assay": "Protein binding in human plasma by LC-MS analysis based ultracentrifugation assay", "format": "ADME, cell-free", "details": "read-out: PPB (converted); call rule not given here"}, "[4]": {"assay": "Protein binding in rat plasma by LC-MS analysis based ultracentrifugation assay", "format": "ADME, cell-free", "details": "read-out: PPB (converted)"}, "[5]": {"assay": "Protein binding in mouse plasma by LC-MS analysis based ultracentrifugation assay", "format": "ADME, cell-free", "details": "read-out: PPB (converted)"}, "[6]": {"target": "Albumin (Homo sapiens, UniProt P02768)", "sequence (P02768 whole entry)": "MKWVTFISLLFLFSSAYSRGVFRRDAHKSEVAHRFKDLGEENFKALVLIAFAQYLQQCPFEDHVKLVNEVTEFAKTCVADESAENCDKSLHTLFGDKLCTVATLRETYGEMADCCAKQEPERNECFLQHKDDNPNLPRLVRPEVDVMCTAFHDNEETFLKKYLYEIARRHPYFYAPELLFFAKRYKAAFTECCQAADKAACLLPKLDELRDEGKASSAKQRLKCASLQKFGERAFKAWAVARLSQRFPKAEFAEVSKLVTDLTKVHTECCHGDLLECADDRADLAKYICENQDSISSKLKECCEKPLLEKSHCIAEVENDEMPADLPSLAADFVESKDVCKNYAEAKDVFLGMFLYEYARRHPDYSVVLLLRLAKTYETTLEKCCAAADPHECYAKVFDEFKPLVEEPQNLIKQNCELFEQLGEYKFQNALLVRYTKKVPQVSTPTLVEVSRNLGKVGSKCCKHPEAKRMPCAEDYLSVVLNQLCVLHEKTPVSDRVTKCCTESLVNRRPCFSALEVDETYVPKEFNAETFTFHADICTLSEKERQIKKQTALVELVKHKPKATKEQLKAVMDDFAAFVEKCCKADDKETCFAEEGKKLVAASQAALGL", "assay": "Binding affinity to albumin (unknown origin) in ALBUMAX medium", "format": "ADME", "details": "read-out: PB (converted)"}, "[7]": {"assay": "Protein binding in human liver microsomes by LC-MS analysis based ultracentrifugation assay", "format": "ADME, Microsome", "details": "read-out: PB (converted)"}, "[8]": {"target": "T1, Cytochrome P450 2C9 (Homo sapiens, UniProt P11712)", "T1 sequence (P11712 whole entry)": "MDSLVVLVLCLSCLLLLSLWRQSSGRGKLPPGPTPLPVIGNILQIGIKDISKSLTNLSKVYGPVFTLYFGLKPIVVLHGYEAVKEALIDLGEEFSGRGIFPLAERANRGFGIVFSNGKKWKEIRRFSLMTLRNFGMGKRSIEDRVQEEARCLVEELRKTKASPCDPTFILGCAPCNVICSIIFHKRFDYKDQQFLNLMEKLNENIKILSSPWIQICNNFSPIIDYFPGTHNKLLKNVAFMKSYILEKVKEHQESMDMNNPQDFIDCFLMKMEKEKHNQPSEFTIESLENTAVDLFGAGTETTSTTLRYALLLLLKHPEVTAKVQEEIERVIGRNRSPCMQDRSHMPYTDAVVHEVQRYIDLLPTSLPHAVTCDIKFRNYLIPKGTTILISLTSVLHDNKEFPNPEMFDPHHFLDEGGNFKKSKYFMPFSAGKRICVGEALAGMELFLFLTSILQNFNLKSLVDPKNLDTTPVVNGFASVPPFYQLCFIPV", "assay": "Inhibition of CYP2C9 in human liver microsomes using tolbutamide as substrate measured for 10 to 30 mins in presence of NADPH regenerating system by UPLC-MS analysis", "format": "ADME"}, "[9]": {"target": "T2, Cytochrome P450 2C19 (Homo sapiens, UniProt P33261)", "T2 sequence (P33261 whole entry)": "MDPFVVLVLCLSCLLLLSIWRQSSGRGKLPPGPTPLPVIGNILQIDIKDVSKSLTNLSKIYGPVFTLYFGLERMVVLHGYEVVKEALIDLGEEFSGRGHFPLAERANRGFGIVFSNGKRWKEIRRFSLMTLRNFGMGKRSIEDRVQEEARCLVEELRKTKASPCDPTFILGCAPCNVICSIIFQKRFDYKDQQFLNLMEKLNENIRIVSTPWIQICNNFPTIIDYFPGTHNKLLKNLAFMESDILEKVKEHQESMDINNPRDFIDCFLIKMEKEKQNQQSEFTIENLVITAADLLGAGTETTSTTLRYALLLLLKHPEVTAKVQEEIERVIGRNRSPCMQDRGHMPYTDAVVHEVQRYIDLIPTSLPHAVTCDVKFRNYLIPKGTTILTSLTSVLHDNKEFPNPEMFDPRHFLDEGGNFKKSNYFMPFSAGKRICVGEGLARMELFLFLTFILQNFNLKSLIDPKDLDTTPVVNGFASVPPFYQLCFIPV", "assay": "Inhibition of CYP2C19 in human liver microsomes using (S)-mephenytoin as substrate measured for 10 to 30 mins in presence of NADPH regenerating system by UPLC-MS analysis", "format": "ADME"}, "[10]": {"target": "T3, Cytochrome P450 2D6 (Homo sapiens, UniProt P10635)", "T3 sequence (P10635 whole entry)": "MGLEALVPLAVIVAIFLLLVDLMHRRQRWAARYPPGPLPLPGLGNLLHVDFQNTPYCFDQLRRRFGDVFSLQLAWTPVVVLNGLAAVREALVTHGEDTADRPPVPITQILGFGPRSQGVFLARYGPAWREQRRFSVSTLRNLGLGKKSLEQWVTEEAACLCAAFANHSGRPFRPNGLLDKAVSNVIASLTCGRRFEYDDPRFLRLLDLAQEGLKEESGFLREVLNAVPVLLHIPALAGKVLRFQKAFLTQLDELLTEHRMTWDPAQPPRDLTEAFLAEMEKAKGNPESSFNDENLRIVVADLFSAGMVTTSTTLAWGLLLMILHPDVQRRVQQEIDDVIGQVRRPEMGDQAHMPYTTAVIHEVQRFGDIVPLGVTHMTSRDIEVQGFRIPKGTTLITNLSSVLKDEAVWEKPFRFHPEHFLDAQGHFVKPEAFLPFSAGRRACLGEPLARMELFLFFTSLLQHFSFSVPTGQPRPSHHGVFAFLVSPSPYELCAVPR", "assay": "Inhibition of CYP2D6 in human liver microsomes using dextromethorphan as substrate measured for 10 to 30 mins in presence of NADPH regenerating system by UPLC-MS analysis", "format": "ADME"}, "[11]": {"assay": "Apparent half life in Swiss mouse at […], iv administered as bolus dose measured up to 24 hrs by UPLC-MS analysis", "format": "ADME, organism-based", "details": "in vivo"}, "[12]": {"assay": "Volume of drug distribution at steady state in Swiss mouse at […], iv administered as bolus dose measured up to 24 hrs by UPLC-MS analysis", "format": "ADME, organism-based", "details": "in vivo"}, "[13]": {"assay": "AUC (0 to infinity) in Swiss mouse at 18.3 mg/kg, po via gavage measured up to 24 hrs by UPLC-MS analysis", "format": "ADME, organism-based", "parameters": "dose 18.3 mg/kg, time infinity, route oral", "details": "in vivo"}, "[14]": {"assay": "AUC (0 to infinity) in Swiss mouse blood at 18.3 mg/kg, po via gavage measured up to 24 hrs by UPLC-MS analysis", "format": "ADME, organism-based", "parameters": "dose 18.3 mg/kg, route oral, time infinity", "details": "in vivo"}, "[15]": {"assay": "Apparent half life in Swiss mouse at 50 mg/kg, po via gavage measured up to 24 hrs by UPLC-MS analysis", "format": "ADME, organism-based", "details": "in vivo"}, "[16]": {"assay": "Cmax in Swiss mouse blood at 50 mg/kg, po via gavage measured up to 24 hrs by UPLC-MS analysis", "format": "ADME, organism-based", "parameters": "dose 50 mg/kg, route oral", "details": "in vivo"}, "[17]": {"assay": "AUC (0 to infinity) in Swiss mouse blood at 50 mg/kg, po via gavage measured up to 24 hrs by UPLC-MS analysis", "format": "ADME, organism-based", "parameters": "dose 50 mg/kg, time infinity, route oral", "details": "in vivo"}, "[18]": {"assay": "Oral bioavailability in Swiss mouse at 50 mg/kg dosed via gavage measured up to 24 hrs by UPLC-MS analysis", "format": "ADME, organism-based", "details": "in vivo"}, "[19]": {"assay": "Apparent half life in Sprague-Dawley rat at […], iv administered as infusion for 10 mins and measured up to 24 hrs by LC-MS analysis", "format": "ADME, organism-based", "details": "in vivo, read-out: t1/2(app) (converted)"}, "[20]": {"assay": "Apparent half life in Sprague-Dawley rat at 3 mg/kg, po administered via gavage measured up to 24 hrs by LC-MS analysis", "format": "ADME, organism-based", "details": "in vivo"}, "[21]": {"assay": "Cmax in Sprague-Dawley rat at 33 mg/kg, po administered via gavage measured up to 24 hrs by LC-MS analysis", "format": "ADME, organism-based", "parameters": "dose 33 mg/kg, route oral", "details": "in vivo"}, "[22]": {"assay": "AUC (0 to infinity) in Sprague-Dawley rat at 33 mg/kg, po administered via gavage measured up to 24 hrs by LC-MS analysis", "format": "ADME, organism-based", "parameters": "dose 33 mg/kg, time infinity, route oral", "details": "in vivo"}, "[23]": {"assay": "AUC (0 to 23 hrs) in NOD-SCID IL2Rgamma null mouse blood infected with Plasmodium falciparum 3D70087/N9 at 10 mg/kg, po qd for 4 days starting from 3 days post infection and measured after 24 hrs post dose by LC-MS/MS analysis", "format": "ADME, organism-based", "parameters": "dose 10 mg/kg, time < 23 hr, route oral"}, "[24]": {"assay": "AUC (0 to 23 hrs) in NOD-SCID IL2Rgamma null mouse blood infected with Plasmodium falciparum 3D70087/N9 at 50 mg/kg, po qd for 4 days starting from 3 days post infection and measured after 24 hrs post dose by LC-MS/MS analysis", "format": "ADME, organism-based", "parameters": "dose 50 mg/kg, time < 23 hr, route oral"}, "[25]": {"target": "T1, Cytochrome P450 2C9", "assay": "Time-dependent inhibition of CYP2C9 in human liver microsomes using tolbutamide as substrate in presence of NADPH regenerating system by UPLC-MS analysis", "format": "ADME"}, "[26]": {"target": "T2, Cytochrome P450 2C19", "assay": "Time-dependent inhibition of CYP2C19 in human liver microsomes using (S)-mephenytoin as substrate in presence of NADPH regenerating system by UPLC-MS analysis", "format": "ADME"}, "[27]": {"target": "T3, Cytochrome P450 2D6", "assay": "Time-dependent inhibition of CYP2D6 in human liver microsomes using dextromethorphan as substrate in presence of NADPH regenerating system by UPLC-MS analysis", "format": "ADME"}, "[28]": {"target": "T2, Cytochrome P450 2C19", "assay": "Time-dependent inhibition of CYP2C19 in human liver microsomes using (S)-mephenytoin as substrate in absence of NADPH regenerating system by UPLC-MS analysis", "format": "ADME"}, "[29]": {"target": "T3, Cytochrome P450 2D6", "assay": "Time-dependent inhibition of CYP2D6 in human liver microsomes using dextromethorphan as substrate in absence of NADPH regenerating system by UPLC-MS analysis", "format": "ADME"}, "[30]": {"details": "buffer, pH 7.4"}, "[31]": {"target": "T4, CYP3A4/5 (Homo sapiens, UniProt P08684+P20815)", "assay": "in vitro", "details": "liver microsomes, probe testosterone"}, "[32]": {"target": "T4, CYP3A4/5", "assay": "in vitro", "details": "liver microsomes, probe testosterone", "remark": "listed apart in the source"}, "[33]": {"target": "T4, CYP3A4/5", "assay": "in vitro", "details": "liver microsomes, probe midazolam"}, "[34]": {"target": "T4, CYP3A4/5", "assay": "in vitro", "details": "liver microsomes, probe midazolam", "remark": "listed apart in the source"}, "[35]": {"system": "Plasmodium falciparum", "assay": "animal or person", "details": "3D70087/N9, in Mus musculus, po, 96 h"}, "[36]": {"assay": "Cmax in Swiss mouse blood at 10.5 mg/kg, po via gavage measured up to 24 hrs by UPLC-MS analysis", "details": "in vivo"}, "[37]": {"assay": "Cmax in NOD-SCID IL2Rgamma null mouse blood infected with Plasmodium falciparum 3D70087/N9 at 50 mg/kg, po qd for 4 days starting from 3 days post infection and measured after 24 hrs post dose by LC-MS/MS analysis"}}}
{"smiles": "Cc1c(Cc2ccc(C(F)(F)F)nc2)c[nH]c1C(=O)NC1CC1", "values": [{"measurement": "EC50", "setting": "[1]", "result": "> 20", "unit": "µM"}, {"measurement": "CC50", "setting": "[2]", "result": "> 50", "unit": "µM"}, {"measurement": "fraction unbound", "setting": "[3]", "result": 0.1}, {"measurement": "fraction unbound", "setting": "[4]", "result": 0.118}, {"measurement": "fraction unbound", "setting": "[5]", "result": 0.111}, {"measurement": "fraction unbound", "setting": "[6]", "result": 0.482}, {"measurement": "fraction unbound", "setting": "[7]", "result": 0.701}, {"measurement": "IC50", "setting": "[8]", "result": "> 20", "unit": "µM"}, {"measurement": "IC50", "setting": "[9]", "result": "> 20", "unit": "µM"}, {"measurement": "IC50", "setting": "[10]", "result": "> 20", "unit": "µM"}, {"measurement": "t1/2(app)", "setting": "[11]", "result": 2.8, "unit": "h"}, {"measurement": "Vdss", "setting": "[12]", "result": 1.2, "unit": "L/kg"}, {"measurement": "AUC", "setting": "[13]", "result": 55.6, "unit": "µM·h"}, {"measurement": "AUC", "setting": "[14]", "result": 44.5, "unit": "µM·h"}, {"measurement": "t1/2(app)", "setting": "[15]", "result": 3.6, "unit": "h"}, {"measurement": "Cmax", "setting": "[16]", "result": 33.8, "unit": "µM"}, {"measurement": "AUC", "setting": "[17]", "result": 176, "unit": "µM·h"}, {"measurement": "F", "setting": "[18]", "result": "> 100", "unit": "%"}, {"measurement": "half-life", "setting": "[19]", "result": 14.6, "unit": "h"}, {"measurement": "t1/2(app)", "setting": "[20]", "result": 3.9, "unit": "h"}, {"measurement": "Cmax", "setting": "[21]", "result": 27, "unit": "µM"}, {"measurement": "AUC", "setting": "[22]", "result": 204, "unit": "µM·h"}, {"measurement": "AUC at 23 h", "setting": "[23]", "result": 2.1, "unit": "µM·h"}, {"measurement": "AUC at 23 h", "setting": "[24]", "result": 26.7, "unit": "µM·h"}, {"measurement": "TDI", "setting": "[25]", "result": "Not Active"}, {"measurement": "TDI", "setting": "[26]", "result": "Not Active"}, {"measurement": "TDI", "setting": "[27]", "result": "Not Active"}, {"measurement": "TDI", "setting": "[28]", "result": "Not Active"}, {"measurement": "TDI", "setting": "[29]", "result": "Active"}, {"measurement": "solubility", "setting": "[30]", "result": 45.6, "unit": "µg/mL"}, {"measurement": "IC50", "setting": "[31]", "result": "> 20", "unit": "µM"}, {"measurement": "IC50", "setting": "[32]", "result": 5.5, "unit": "µM"}, {"measurement": "IC50", "setting": "[33]", "result": "> 20", "unit": "µM"}, {"measurement": "IC50", "setting": "[34]", "result": 5.5, "unit": "µM"}, {"measurement": "ED90", "setting": "[35]", "result": 50, "unit": "mg/kg/day"}, {"measurement": "Cmax", "setting": "[36]", "result": 3.7, "unit": "µM"}, {"measurement": "Cmax", "setting": "[37]", "result": 7.81, "unit": "µM"}]}
